The target in the assay is wild-type human cardiac sodium channel, hNav1.5 (Homo sapiens, UniProt Q14524). As to the kind of experiment: Late INa screening assay (late sodium current, PatchXpress whole cell patch clamp). The assay is classed as cell-based. The settings on record: compound at 10 μM; read-out: Late INa % blk. In general terms: Patch clamp records ionic current or voltage across a cell membrane.
Sequence of wild-type human cardiac sodium channel, hNav1.5 (Q14524 whole entry): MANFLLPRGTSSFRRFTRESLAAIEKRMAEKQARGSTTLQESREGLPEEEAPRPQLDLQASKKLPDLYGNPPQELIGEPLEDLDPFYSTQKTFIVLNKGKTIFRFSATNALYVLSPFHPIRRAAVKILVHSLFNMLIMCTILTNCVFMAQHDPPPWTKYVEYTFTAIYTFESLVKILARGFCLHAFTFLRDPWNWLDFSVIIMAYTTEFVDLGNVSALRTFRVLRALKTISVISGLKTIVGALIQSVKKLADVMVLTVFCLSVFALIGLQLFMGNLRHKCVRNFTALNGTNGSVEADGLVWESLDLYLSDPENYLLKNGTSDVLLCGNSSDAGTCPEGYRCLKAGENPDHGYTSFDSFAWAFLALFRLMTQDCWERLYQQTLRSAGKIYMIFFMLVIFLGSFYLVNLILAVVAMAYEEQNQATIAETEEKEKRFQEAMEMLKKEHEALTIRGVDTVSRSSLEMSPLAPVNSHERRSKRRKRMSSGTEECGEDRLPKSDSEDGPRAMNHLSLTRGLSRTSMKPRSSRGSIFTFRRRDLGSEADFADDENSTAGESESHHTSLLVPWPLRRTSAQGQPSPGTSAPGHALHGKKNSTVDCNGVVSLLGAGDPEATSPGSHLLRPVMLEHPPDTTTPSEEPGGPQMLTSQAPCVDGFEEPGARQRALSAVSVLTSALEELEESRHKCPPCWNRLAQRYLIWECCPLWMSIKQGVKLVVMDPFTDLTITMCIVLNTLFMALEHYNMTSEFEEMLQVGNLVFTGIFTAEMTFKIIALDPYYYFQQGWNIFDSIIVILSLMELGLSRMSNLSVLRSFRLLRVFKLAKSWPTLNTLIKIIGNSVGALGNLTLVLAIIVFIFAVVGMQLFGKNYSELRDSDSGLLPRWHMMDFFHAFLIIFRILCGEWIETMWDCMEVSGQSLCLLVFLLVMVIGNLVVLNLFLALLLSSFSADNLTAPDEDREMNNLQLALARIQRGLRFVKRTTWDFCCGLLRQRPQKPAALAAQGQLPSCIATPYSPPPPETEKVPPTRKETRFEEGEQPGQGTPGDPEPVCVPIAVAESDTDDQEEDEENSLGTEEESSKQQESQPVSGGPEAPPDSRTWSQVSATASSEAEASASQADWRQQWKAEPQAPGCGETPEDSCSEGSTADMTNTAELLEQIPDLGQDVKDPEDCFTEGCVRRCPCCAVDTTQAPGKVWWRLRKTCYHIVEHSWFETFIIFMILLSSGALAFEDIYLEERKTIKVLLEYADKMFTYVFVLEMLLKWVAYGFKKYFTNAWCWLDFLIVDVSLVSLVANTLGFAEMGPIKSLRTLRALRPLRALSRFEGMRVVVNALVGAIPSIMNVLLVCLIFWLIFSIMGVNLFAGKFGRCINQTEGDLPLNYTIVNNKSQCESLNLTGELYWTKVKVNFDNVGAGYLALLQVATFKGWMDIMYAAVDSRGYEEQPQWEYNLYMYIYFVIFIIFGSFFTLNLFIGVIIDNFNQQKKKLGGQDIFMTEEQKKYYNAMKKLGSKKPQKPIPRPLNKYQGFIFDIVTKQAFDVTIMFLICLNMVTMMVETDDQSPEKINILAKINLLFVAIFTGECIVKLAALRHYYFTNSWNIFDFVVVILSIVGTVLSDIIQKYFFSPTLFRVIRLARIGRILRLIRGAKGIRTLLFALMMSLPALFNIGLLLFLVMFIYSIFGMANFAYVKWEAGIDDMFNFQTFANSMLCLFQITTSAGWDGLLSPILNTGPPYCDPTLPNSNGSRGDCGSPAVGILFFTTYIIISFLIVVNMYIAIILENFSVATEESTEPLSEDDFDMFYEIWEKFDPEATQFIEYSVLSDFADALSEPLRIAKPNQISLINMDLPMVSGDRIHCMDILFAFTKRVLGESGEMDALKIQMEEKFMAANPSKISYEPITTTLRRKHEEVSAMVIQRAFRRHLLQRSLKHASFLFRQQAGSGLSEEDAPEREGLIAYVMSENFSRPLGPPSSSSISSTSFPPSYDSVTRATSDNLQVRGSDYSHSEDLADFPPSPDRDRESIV

For `CCOC(=O)c1c(C)nc2[nH]ncc2c1-c1cccc2ccccc12` [PT-472, ethyl 6-methyl-4-(naphthalen-1-yl)-1H-pyrazolo[3,4-b]pyridine-5-carboxylate], the inhibition at 10 µM came to 22.6%.

Take `CCOC(=O)C1=C(C)Nc2[nH]ncc2C1c1cccs1` (stereo not shown) [PT-473, ethyl 6-methyl-4-(thiophen-2-yl)-4,7-dihydro-1H-pyrazolo[3,4-b]pyridine-5-carboxylate]: the inhibition at 10 µM amounted to 9.4%.

Consider `CCOC(=O)c1c(C)nc2[nH]ncc2c1-c1ccccc1` [PT-474, ethyl 6-methyl-4-phenyl-1H-pyrazolo[3,4-b]pyridine-5-carboxylate], for which the inhibition at 10 µM was found to be 22%.

`CCOC(=O)C1=C(C)Nc2nnnn2C1c1ccccc1-n1cncn1` (stereo not shown) [PT-475, ethyl 7-(2-(1H-1,2,4-triazol-1-yl)phenyl)-5-methyl-4,7-dihydrotetrazolo[1,5-a]pyrimidine-6-carboxylate]: the inhibition at 10 µM was determined as 5.5%.

For the compound `CCOC(=O)C1=C(C)Nc2ccnn2C1c1ccccc1OCCN(C)C` (stereo not shown) [PT-478, ethyl 7-(2-(2-(dimethylamino)ethoxy)phenyl)-5-methyl-4,7-dihydropyrazolo[1,5-a]pyrimidine-6-carboxylate], the inhibition at 10 µM turned out to be 34.3%.

Turning to `CCOC(=O)C1=C(C)Nc2nnnn2C1c1ccccc1Oc1cccc(C(=O)OCC)c1` (stereo not shown) [PT-479, ethyl 7-(2-(3-(ethoxycarbonyl)phenoxy)phenyl)-5-methyl-4,7-dihydrotetrazolo[1,5-a]pyrimidine-6-carboxylate], the inhibition at 10 µM stood at 35.7%.

As to `CCOC(=O)C1=C(C)Nc2nnnn2C1c1ccccc1OCc1cccc(C(=O)OC)c1` (stereo not shown) [PT-480, ethyl 7-(2-(3-(methoxycarbonyl)benzyloxy)phenyl)-5-methyl-4,7-dihydrotetrazolo[1,5-a]pyrimidine-6-carboxylate], the inhibition at 10 µM was found to be 5.4%.

Turning to `CCOC(=O)C1=C(C)Nc2nnnn2C1c1ccccc1Oc1ccc(-c2nnn[nH]2)cc1` (stereo not shown) [PT-481, ethyl 7-(2-(4-(1H-tetrazol-5-yl)phenoxy)phenyl)-5-methyl-4,7-dihydrotetrazolo[1,5-a]pyrimidine-6-carboxylate], the inhibition at 10 µM came to 18%.

For the compound `CCOC(=O)C1=C(C)Nc2nnnn2C1c1ccccc1OCc1ccc(C(=O)OCC)cc1` (stereo not shown) [PT-482, ethyl 7-(2-(4-(ethoxycarbonyl)benzyloxy)phenyl)-5-methyl-4,7-dihydrotetrazolo[1,5-a]pyrimidine-6-carboxylate], the inhibition at 10 µM was determined as 3.2%.

Regarding `CCOC(=O)C1=C(C)Nc2nnnn2C1c1ccccc1Oc1ccc(C(=O)OCC)cc1` (stereo not shown) [PT-483, ethyl 7-(2-(4-(ethoxycarbonyl)phenoxy)phenyl)-5-methyl-4,7-dihydrotetrazolo[1,5-a]pyrimidine-6-carboxylate], the inhibition at 10 µM amounted to 31.8%.

As for `CCOC(=O)C1=C(C)Nc2nnnn2C1c1ccccc1N1CCC(C(=O)OCC)CC1` (stereo not shown) [PT-484, ethyl 7-(2-(4-(ethoxycarbonyl)piperidin-1-yl)phenyl)-5-methyl-4,7-dihydrotetrazolo[1,5-a]pyrimidine-6-carboxylate], the inhibition at 10 µM is 36.1%.

As for `CCOC(=O)C1=C(C)Nc2nnnn2C1c1ccccc1Oc1ccc(C#N)cc1` (stereo not shown) [PT-485, ethyl 7-(2-(4-cyanophenoxy)phenyl)-5-methyl-4,7-dihydrotetrazolo[1,5-a]pyrimidine-6-carboxylate], the inhibition at 10 µM came to 5.2%.

With `CCOC(=O)C1=C(C)Nc2nnnn2C1c1c(Cl)cccc1Cl` (stereo not shown) [PT-486, ethyl 7-(2,6-dichlorophenyl)-5-methyl-4,7-dihydrotetrazolo[1,5-a]pyrimidine-6-carboxylate], the inhibition at 10 µM was 30.8%.

As for `CCOC(=O)C1=C(C)Nc2nnnn2C1c1c(C)cccc1C` (stereo not shown) [PT-487, ethyl 7-(2,6-dimethylphenyl)-5-methyl-4,7-dihydrotetrazolo[1,5-a]pyrimidine-6-carboxylate], the inhibition at 10 µM stood at 20.9%.

Consider `CCOC(=O)C1=C(C)Nc2ccnn2C1c1c(Br)sc2ccccc12` (stereo not shown) [PT-488, ethyl 7-(2-bromobenzo[b]thiophen-3-yl)-5-methyl-4,7-dihydropyrazolo[1,5-a]pyrimidine-6-carboxylate], for which the inhibition at 10 µM turned out to be 82.3%.

Take `CCOC(=O)C1=C(C)N(CC(=O)Nc2c(C)cccc2C)c2nnnn2C1c1ccccc1Br` (stereo not shown) [PT-490, ethyl 7-(2-bromophenyl)-4-(2-(2,6-dimethylphenylamino)-2-oxoethyl)-5-methyl-4,7-dihydrotetrazolo[1,5-a]pyrimidine-6-carboxylate]: the inhibition at 10 µM turned out to be 7.3%.

With `CCOC(=O)C1=C(C)Nc2ccnn2C1c1ccc(OC)cc1C#N` (stereo not shown) [PT-491, ethyl 7-(2-cyano-4-methoxyphenyl)-5-methyl-4,7-dihydropyrazolo[1,5-a]pyrimidine-6-carboxylate], the inhibition at 10 µM was -0.9%.

As for `CCOC(=O)C1=C(C)Nc2nnnn2C1c1sccc1Br` (stereo not shown) [PT-498, ethyl 7-(3-bromothiophen-2-yl)-5-methyl-4,7-dihydrotetrazolo[1,5-a]pyrimidine-6-carboxylate], the inhibition at 10 µM turned out to be 25.2%.

For the compound `CCOC(=O)C1=C(C)Nc2nnnn2C1c1ccccc1-c1cccc(C#N)c1` (stereo not shown) [PT-499, ethyl 7-(3′-cyanobiphenyl-2-yl)-5-methyl-4,7-dihydrotetrazolo[1,5-a]pyrimidine-6-carboxylate], the inhibition at 10 µM is 27.7%.

Consider `CCOC(=O)C1=C(C)Nc2nnnn2C1c1ccccc1-c1ccc(-c2nnn[nH]2)cc1` (stereo not shown) [PT-500, ethyl 7-(4′-(1H-tetrazol-5-yl)biphenyl-2-yl)-5-methyl-4,7-dihydrotetrazolo[1,5-a]pyrimidine-6-carboxylate], for which the inhibition at 10 µM is 2.7%.

Turning to `CCOC(=O)C1=C(C)Nc2nnnn2C1c1ccc(N(C)C)cc1[N+](=O)[O-]` (stereo not shown) [PT-501, ethyl 7-(4-(dimethylamino)-2-nitrophenyl)-5-methyl-4,7-dihydrotetrazolo[1,5-a]pyrimidine-6-carboxylate], the inhibition at 10 µM was determined as 2.5%.

Consider `CCOC(=O)C1=C(C)Nc2ccnn2C1c1ccc(N(C)C)c2ccccc12` (stereo not shown) [PT-502, ethyl 7-(4-(dimethylamino)naphthalen-1-yl)-5-methyl-4,7-dihydropyrazolo[1,5-a]pyrimidine-6-carboxylate], for which the inhibition at 10 µM is 27%.

As to `CCOC(=O)C1=C(C)Nc2nnnn2C1c1ccccc1-c1ccc(C#N)cc1` (stereo not shown) [PT-503, ethyl 7-(4′-cyanobiphenyl-2-yl)-5-methyl-4,7-dihydrotetrazolo[1,5-a]pyrimidine-6-carboxylate], the inhibition at 10 µM came to 29.2%.

As to `CCOC(=O)C1=C(C)Nc2nnnn2C1c1ccc(OC)c2ccccc12` (stereo not shown) [PT-504, ethyl 7-(4-methoxynaphthalen-1-yl)-5-methyl-4,7-dihydrotetrazolo[1,5-a]pyrimidine-6-carboxylate], the inhibition at 10 µM was determined as 28.2%.

In the case of `COC(=O)C1=C(C)Nc2cc(C)nn2C1c1nc(C)cs1` (stereo not shown) [PT-507, methyl 2,5-dimethyl-7-(4-methylthiazol-2-yl)-4,7-dihydropyrazolo[1,5-a]pyrimidine-6-carboxylate], the inhibition at 10 µM was 0.2%.

As to `COC(=O)C1=C(C)Nc2cc(C)nn2C1c1cccc2ccccc12` (stereo not shown) [PT-508, methyl 2,5-dimethyl-7-(naphthalen-1-yl)-4,7-dihydropyrazolo[1,5-a]pyrimidine-6-carboxylate], the inhibition at 10 µM is 11.6%.

Regarding `COC(=O)C1=C(C)Nc2[nH]nc(C)c2C1c1nc(C)cs1` (stereo not shown) [PT-509, methyl 3,6-dimethyl-4-(4-methylthiazol-2-yl)-4,7-dihydro-1H-pyrazolo[3,4-b]pyridine-5-carboxylate], the inhibition at 10 µM was 6.4%.

As for `COC(=O)C1=C(C)Nc2[nH]ncc2C1c1sc(Cl)nc1Cl` (stereo not shown) [PT-510, methyl 4-(2,4-dichlorothiazol-5-yl)-6-methyl-4,7-dihydro-1H-pyrazolo[3,4-b]pyridine-5-carboxylate], the inhibition at 10 µM is 19.9%.

As for `COC(=O)C1=C(C)Nc2ccnn2C1c1nc(C)cs1` (stereo not shown) [PT-511, methyl 5-methyl-7-(4-methylthiazol-2-yl)-4,7-dihydropyrazolo[1,5-a]pyrimidine-6-carboxylate], the inhibition at 10 µM was 19.5%.

In the case of `COC(=O)C1=C(C)Nc2nnnn2C1c1cccs1` (stereo not shown) [PT-513, methyl 5-methyl-7-(thiophen-2-yl)-4,7-dihydrotetrazolo[1,5-a]pyrimidine-6-carboxylate], the inhibition at 10 µM was found to be 10.5%.

On to `COC(=O)C1=C(C)Nc2[nH]ncc2C1c1nc(C)cs1` (stereo not shown) [PT-515, methyl 6-methyl-4-(4-methylthiazol-2-yl)-4,7-dihydro-1H-pyrazolo[3,4-b]pyridine-5-carboxylate], for which the inhibition at 10 µM worked out at 10.8%.

As to `CCOC(=O)c1ccc(COc2ccccc2C2C(C(=O)OC)=C(C)Nc3nnnn32)cc1` (stereo not shown) [PT-516, methyl 7-(2-(4-(ethoxycarbonyl)benzyloxy)phenyl)-5-methyl-4,7-dihydrotetrazolo[1,5-a]pyrimidine-6-carboxylate], the inhibition at 10 µM worked out at 20.2%.

Regarding `COC(=O)C1=C(C)Nc2nnnn2C1c1c(Br)sc2ccc(Cl)cc12` (stereo not shown) [PT-517, methyl 7-(2-bromo-5-chlorobenzo[b]thiophen-3-yl)-5-methyl-4,7-dihydrotetrazolo[1,5-a]pyrimidine-6-carboxylate], the inhibition at 10 µM turned out to be 43.3%.

With `COC(=O)C1=C(C)Nc2nnnn2C1c1ccccc1I` (stereo not shown) [PT-519, methyl 7-(2-iodophenyl)-5-methyl-4,7-dihydrotetrazolo[1,5-a]pyrimidine-6-carboxylate], the inhibition at 10 µM was 27.3%.

On to `COC(=O)C1=C(C)Nc2nnnn2C1c1sc2ccccc2c1Br` (stereo not shown) [PT-520, methyl 7-(3-bromobenzo[b]thiophen-2-yl)-5-methyl-4,7-dihydrotetrazolo[1,5-a]pyrimidine-6-carboxylate], for which the inhibition at 10 µM turned out to be 78.4%.

As for `COC(=O)C1=C(C)Nc2nnnn2C1c1ccc(-c2ccc(OC)cc2)s1` (stereo not shown) [PT-521, methyl 7-(5-(4-methoxyphenyl)thiophen-2-yl)-5-methyl-4,7-dihydrotetrazolo[1,5-a]pyrimidine-6-carboxylate], the inhibition at 10 µM was 37.5%.

`COC(=O)C1=C(C)Nc2nnnn2C1c1ccc(Br)s1` (stereo not shown) [PT-522, methyl 7-(5-bromothiophen-2-yl)-5-methyl-4,7-dihydrotetrazolo[1,5-a]pyrimidine-6-carboxylate]: the inhibition at 10 µM was determined as 37.7%.

For the origin of these results see patent US20090012103A1, “SUBSTITUTED HETEROCYCLIC COMPOUNDS” (priority 2007, published 2009).
